Where a name gives a salt, the structure may show the parent alone.
How the values were obtained:
[1] = target: T1, p38 alpha (Homo sapiens, UniProt Q16539); test: P38 alpha enzyme inhibition assay (Alphascreen kinase activity assay); assay type: biochemical; details: 100 pM p38 alpha, 2 hours preincubation at 25° C., 250 μM ATP, ATF-2 fusion protein; read-out: p38α inhibition
T1 construct: purchased Invitrogen PV3304
Summary of the method: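 Phosphorylation of ATF-2 fusion protein (0.3 μg/ml) read by AlphaScreen with anti-phospho-ATF2 antibody after 1 h kinase reaction at 25 °C, initiated by 250 μM ATP. Compounds first incubated 2 h at 25 °C with 100 pM p38 alpha in pH 7.5 HEPES buffer, 1% DMSO. IC50 derived from concentration-response data.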

[2] = test system: Peripheral Blood Mononuclear Cells (PBMCs), TNFα release; test: LPS-stimulated PBMC TNFα release assay; assay type: cell-based; details: human PBMC, LPS (10 ng/ml), 18 h, compound 1 h before LPS; read-out: LPS-stimulated PBMC TNFα release inhibition
Summary of the method: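 TNFα in cell-free supernatant, read on MSD plates, gave % inhibition curves and IC50 (≥3 separate experiments). Healthy-donor PBMCs had 1 h compound exposure at 37 °C in 1% FBS medium, then 18 h stimulation with 10 ng/ml LPS, after a 3 h serum-free rest.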

T1 sequence (Q16539 whole entry, the tested form may be a part): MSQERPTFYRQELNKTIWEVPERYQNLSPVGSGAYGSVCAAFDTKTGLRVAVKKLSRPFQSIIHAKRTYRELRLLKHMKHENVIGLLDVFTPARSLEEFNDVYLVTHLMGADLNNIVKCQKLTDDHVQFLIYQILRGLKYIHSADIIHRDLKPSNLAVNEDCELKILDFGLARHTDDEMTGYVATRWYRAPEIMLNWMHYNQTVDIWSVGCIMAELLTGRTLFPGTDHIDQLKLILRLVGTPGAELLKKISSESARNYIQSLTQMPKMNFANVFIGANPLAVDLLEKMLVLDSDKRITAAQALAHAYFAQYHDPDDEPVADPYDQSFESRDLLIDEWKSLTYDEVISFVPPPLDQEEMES

Row | IC50 [1] [nM] | Compound | IC50 [2] [nM]
1 | < 1 | CCN(C)CCNC(=O)c1cc(NC(=O)N[C@H]2CC[C@@H](Oc3ccc4nnc(N(CC)CC)n4c3)c3ccccc32)cc(C(C)(C)C)n1 [Example 205, 6-(tert-Butyl)-4-(3-((1S,4R)-4-((3-(diethylamino)-[1,2,4]triazolo[4,3-a]pyridin-6-yl)oxy)-1,2,3,4-tetra-hydronaphthalen-1-yl)ureido)-N-(2-(ethyl(methyl)amino)-ethyl)picolinamide formate salt] | 1 to 5
2 | < 1 | CCC(CC)c1nnc2ccc(O[C@@H]3CC[C@H](NC(=O)Nc4cc(C(=O)NCCN(C)C)nc(C(C)(C)C)c4)c4ccccc43)cn12 [Example 207, 6-(tert-butyl)-N-(2-(dimethylamino)ethyl)-4-(3-((1S,4R)-4-((3-(pentan-3-yl)-[1,2,4]triazolo[4,3-a]pyridin-6-yl)oxy)-1,2,3,4-tetrahydronaphthalen-1-yl)ureido)picolinamide] | < 1
3 | < 1 | CN(CCO)CCNC(=O)c1cc(C(C)(C)C)cc(NC(=O)N[C@H]2CC[C@@H](Oc3ccc4nnc(C(C)(C)C)n4c3)c3ccccc32)n1 [Example 208, 4-(tert-butyl)-6-(3-((1S,4R)-4-((3-(tert-butyl)-[1,2,4]triazolo[4,3-a]pyridin-6-yl)oxy)-1,2,3,4-tetrahydronaphthalen-1-yl)ureido)-N-(2-((2-hydroxyethyl)(methyl)-amino)ethyl)picolinamide formate salt] | > 5
4 | < 1 | CC(C)(C)c1cc(NC(=O)N[C@H]2CC[C@@H](Oc3ccc4nnc(C(C)(C)C)n4c3)c3ccccc32)nc(C(=O)NCCN2CCCOCC2)c1 [Example 209, N-(2-(1,4-oxazepan-4-yl)ethyl)-4-(tert-butyl)-6-(3-((1S,4R)-4-((3-(tert-butyl)-[1,2,4]triazolo[4,3-a]pyridin-6-yl)oxy)-1,2,3,4-tetrahydronaphthalen-1-yl)ureido)picolinamide formate salt] | < 1
5 | 1 to 10 | CN(C)CCNC(=O)c1nc(NC(=O)N[C@H]2CC[C@@H](Oc3ccc4nnc([C@@H]5COCCN5C)n4c3)c3ccccc32)cc(C(C)(C)C)n1 [Example 214, 4-(tert-Butyl)-N-(2-(dimethylamino)ethyl)-6-(3-((1S,4R)-4-((3-((R)-4-methylmorpholin-3-yl)-[1,2,4]triazolo[4,3-a]pyridin-6-yl)oxy)-1,2,3,4-tetrahydronaphthalen-1-yl)ureido)pyrimidine-2-carboxamide] | > 5
6 | 1 to 10 | CN(CCO)CCNC(=O)c1nc(NC(=O)N[C@H]2CC[C@@H](Oc3ccc4nnc([C@@H]5COCCN5C)n4c3)c3ccccc32)cc(C(C)(C)C)n1 [Example 215, 4-(tert-Butyl)-N-(2-((2-hydroxyethyl)(methyl)amino)ethyl)-6-(3-((1S,4R)-4-((3-((R)-4-methylmorpholin-3-yl)-[1,2,4]triazolo[4,3-a]pyridin-6-yl)oxy)-1,2,3,4-tetrahydronaphthalen-1-yl)ureido)pyrimidine-2-carboxamide] | > 5

The remaining lines, values behind:

Row | Compound | IC50 [1] [nM] | IC50 [2] [nM]
7 | CCN(CC)c1nnc2ccc(O[C@@H]3CC[C@H](NC(=O)Nc4cc(C(=O)NCC(C)(C)N(C)C)nc(C(C)(C)C)c4)c4ccccc43)cn12 [Example 204, 6-(tert-Butyl)-4-(3-((1S,4R)-4-((3-(diethylamino)-[1,2,4]triazolo[4,3-a]pyridin-6-yl)oxy)-1,2,3,4-tetrahydronaphthalen-1-yl)ureido)-N-(2-(dimethylamino)-2-methylpropyl)-picolinamide formate salt] | < 1 | 1 to 5
8 | CCC(C)(C)c1nnc2ccc(O[C@@H]3CC[C@H](NC(=O)Nc4cc(C(=O)NCCN(C)C)nc(C(C)(C)C)c4)c4ccccc43)cn12 [Example 206, 6-(tert-butyl)-N-(2-(dimethylamino)ethyl)-4-(3-((1S,4R)-4-((3-(tert-pentyl)-[1,2,4]triazolo[4,3-a]pyridin-6-yl)oxy)-1,2,3,4-tetrahydronaphthalen-1-yl)ureido)picolinamide] | < 1 | 1 to 5
9 | COC1CN(CCNC(=O)c2cc(C(C)(C)C)cc(NC(=O)N[C@H]3CC[C@@H](Oc4ccc5nnc(C(C)(C)C)n5c4)c4ccccc43)n2)C1 [Example 210, 4-(tert-butyl)-6-(3-((1S,4R)-4-((3-(tert-butyl)-[1,2,4]triazolo[4,3-a]pyridin-6-yl)oxy)-1,2,3,4-tetrahydronaphthalen-1-yl)ureido)-N-(2-(3-methoxyazetidin-1-yl)ethyl)picolinamide formate salt] | < 1 | 1 to 5
10 | CC(C)(C)c1cc(NC(=O)N[C@H]2CC[C@@H](Oc3ccc4nnc(C(C)(C)C)n4c3)c3ccccc32)nc(C(=O)NCCN2CCC(O)CC2)c1 [Example 211, 4-(tert-butyl)-6-(3-((1S,4R)-4-((3-(tert-butyl)-[1,2,4]triazolo[4,3-a]pyridin-6-yl)oxy)-1,2,3,4-tetrahydronaphthalen-1-yl)ureido)-N-(-(2-(4-hydroxypiperidin-1-yl)ethyl)picolinamide formate salt] | < 1 | > 5
11 | CN1CCC[C@@]1(C)c1nnc2ccc(O[C@@H]3CC[C@H](NC(=O)Nc4cc(NS(C)(=O)=O)nc(C(C)(C)C)c4)c4ccccc43)cn12 [Example 212, N-(6-(tert-Butyl)-4-(3-((1S,4R)-4-((3-((S)-1,2-dimethylpyrrolidin-2-yl)-[1,2,4]triazolo[4,3-a]pyridin-6-yl)oxy)-1,2,3,4-tetrahydronaphthalen-1-yl)ureido)pyridin-2-yl)methanesulfonamide] | < 1 | 1 to 5
12 | CCS(=O)(=O)Nc1cc(NC(=O)N[C@H]2CC[C@@H](Oc3ccc4nnc([C@]5(C)CCCN5C)n4c3)c3ccccc32)cc(C(C)(C)C)n1 [Example 213, N-(6-(tert-Butyl)-4-(3-((1S,4R)-4-((3-((S)-1,2-dimethylpyrrolidin-2-yl)-[1,2,4]triazolo[4,3-a]pyridin-6-yl)oxy)-1,2,3,4-tetrahydronaphthalen-1-yl)ureido)pyridin-2-yl)ethanesulfonamide] | < 1 | 1 to 5
